ChEMBL document CHEMBL5506005, “Biochemical and structural characterization of chlorhexidine as an ATP-assisted inhibitor against type 1 methionyl-tRNA synthetase from Gram-positive bacteria” (Eur J Med Chem, 2024)
≈ marks a conversion by molar mass, not a printed value. Calls of active or inactive are those of the source. The calls are words filed in the database; no cut-off is given here.

Key:
[1] = target: Methionine--tRNA ligase (Staphylococcus aureus (strain Mu50 / ATCC 700699)) (UniProt P67578); assay: Binding affinity to Staphylococcus aureus MetRS expressed in Escherichia coli BL21(DE3) cells assessed as change in entropy in presence of 50 uM ATP by ITC analysis
Sequence of Methionine--tRNA ligase (Staphylococcus aureus (strain Mu50 / ATCC 700699)) (P67578 whole entry): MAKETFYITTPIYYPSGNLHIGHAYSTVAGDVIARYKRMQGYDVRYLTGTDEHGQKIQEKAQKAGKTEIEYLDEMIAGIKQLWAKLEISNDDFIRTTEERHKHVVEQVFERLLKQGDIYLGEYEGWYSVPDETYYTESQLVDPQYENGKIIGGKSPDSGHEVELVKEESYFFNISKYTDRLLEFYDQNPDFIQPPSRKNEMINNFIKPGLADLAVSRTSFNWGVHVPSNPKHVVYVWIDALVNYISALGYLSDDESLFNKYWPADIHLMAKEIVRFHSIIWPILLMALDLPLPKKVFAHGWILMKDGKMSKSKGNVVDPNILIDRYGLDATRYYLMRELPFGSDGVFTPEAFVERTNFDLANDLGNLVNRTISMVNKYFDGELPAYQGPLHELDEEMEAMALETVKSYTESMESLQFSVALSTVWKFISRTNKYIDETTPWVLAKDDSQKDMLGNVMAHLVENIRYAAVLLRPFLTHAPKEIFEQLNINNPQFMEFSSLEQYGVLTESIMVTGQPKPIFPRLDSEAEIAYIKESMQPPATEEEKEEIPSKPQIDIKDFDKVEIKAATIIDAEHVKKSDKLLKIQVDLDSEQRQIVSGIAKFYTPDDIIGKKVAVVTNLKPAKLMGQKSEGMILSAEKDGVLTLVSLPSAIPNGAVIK

[2] = target: Methionine--tRNA ligase (Staphylococcus aureus (strain Mu50 / ATCC 700699)) (UniProt P67578); assay: Binding affinity to Staphylococcus aureus MetRS expressed in Escherichia coli BL21(DE3) cells assessed as change in Gibbs free energy in presence of 20 uM ATP by ITC analysis
[3] = target: Methionine--tRNA ligase (Staphylococcus aureus (strain Mu50 / ATCC 700699)) (UniProt P67578); assay: Binding affinity to Staphylococcus aureus MetRS expressed in Escherichia coli BL21(DE3) cells assessed as change in entropy in presence of 20 uM ATP by ITC analysis
[4] = target: Methionine--tRNA ligase (Staphylococcus aureus (strain Mu50 / ATCC 700699)) (UniProt P67578); assay: Binding affinity to Staphylococcus aureus MetRS expressed in Escherichia coli BL21(DE3) cells assessed as change in entropy in presence of 1 mM ATP by ITC analysis
[5] = target: Methionine--tRNA ligase (Staphylococcus aureus (strain Mu50 / ATCC 700699)) (UniProt P67578); assay: Binding affinity to Staphylococcus aureus MetRS expressed in Escherichia coli BL21(DE3) cells assessed as change in enthalpy in presence of 1 mM ATP by ITC analysis
[6] = target: Methionine--tRNA ligase (Staphylococcus aureus (strain Mu50 / ATCC 700699)) (UniProt P67578); assay: Binding affinity to Staphylococcus aureus MetRS expressed in Escherichia coli BL21(DE3) cells assessed as change in Gibbs free energy by ITC analysis
[7] = target: Methionine--tRNA ligase (Staphylococcus aureus (strain Mu50 / ATCC 700699)) (UniProt P67578); assay: Binding affinity to Staphylococcus aureus MetRS expressed in Escherichia coli BL21(DE3) cells assessed as change in Gibbs free energy in presence of 50 uM ATP by ITC analysis
[8] = target: Methionine--tRNA ligase (Staphylococcus aureus (strain Mu50 / ATCC 700699)) (UniProt P67578); assay: Binding affinity to Staphylococcus aureus MetRS expressed in Escherichia coli BL21(DE3) cells assessed as change in enthalpy by ITC analysis
[9] = target: Methionine--tRNA ligase (Staphylococcus aureus (strain Mu50 / ATCC 700699)) (UniProt P67578); assay: Binding affinity to Staphylococcus aureus MetRS expressed in Escherichia coli BL21(DE3) cells assessed as thermal stability by measuring change in melting temperature incubated for 10 mins followed by heat treatment in presence of 2 mM ATP by SYPRO orange dye based TSA
[10] = target: Methionine--tRNA ligase (Staphylococcus aureus (strain Mu50 / ATCC 700699)) (UniProt P67578); assay: Binding affinity to Staphylococcus aureus MetRS expressed in Escherichia coli BL21(DE3) cells assessed as change in enthalpy in presence of 20 uM ATP by ITC analysis
[11] = target: Methionine--tRNA ligase (Staphylococcus aureus (strain Mu50 / ATCC 700699)) (UniProt P67578); assay: Binding affinity to Staphylococcus aureus MetRS expressed in Escherichia coli BL21(DE3) cells assessed as change in Gibbs free energy in presence of 1 mM ATP by ITC analysis
[12] = target: Methionine--tRNA ligase (Staphylococcus aureus (strain Mu50 / ATCC 700699)) (UniProt P67578); assay: Binding affinity to Staphylococcus aureus MetRS expressed in Escherichia coli BL21(DE3) cells assessed as change in enthalpy in presence of 50 uM ATP by ITC analysis
[13] = target: Methionine--tRNA ligase (Staphylococcus aureus (strain Mu50 / ATCC 700699)) (UniProt P67578); assay: Binding affinity to Staphylococcus aureus MetRS expressed in Escherichia coli BL21(DE3) cells assessed as change in entropy by ITC analysis
[14] = target: T1, Methionine--tRNA ligase (Enterococcus faecalis) (UniProt A0A3N3ZFK4); assay: Inhibition of Enterococcus faecalis type 1 MetRS expressed in Escherichia coli BL21(DE3) cells at 50 uM measured after 1.5 hrs by pre-transfer editing assay
T1 sequence (A0A3N3ZFK4 as listed by the source): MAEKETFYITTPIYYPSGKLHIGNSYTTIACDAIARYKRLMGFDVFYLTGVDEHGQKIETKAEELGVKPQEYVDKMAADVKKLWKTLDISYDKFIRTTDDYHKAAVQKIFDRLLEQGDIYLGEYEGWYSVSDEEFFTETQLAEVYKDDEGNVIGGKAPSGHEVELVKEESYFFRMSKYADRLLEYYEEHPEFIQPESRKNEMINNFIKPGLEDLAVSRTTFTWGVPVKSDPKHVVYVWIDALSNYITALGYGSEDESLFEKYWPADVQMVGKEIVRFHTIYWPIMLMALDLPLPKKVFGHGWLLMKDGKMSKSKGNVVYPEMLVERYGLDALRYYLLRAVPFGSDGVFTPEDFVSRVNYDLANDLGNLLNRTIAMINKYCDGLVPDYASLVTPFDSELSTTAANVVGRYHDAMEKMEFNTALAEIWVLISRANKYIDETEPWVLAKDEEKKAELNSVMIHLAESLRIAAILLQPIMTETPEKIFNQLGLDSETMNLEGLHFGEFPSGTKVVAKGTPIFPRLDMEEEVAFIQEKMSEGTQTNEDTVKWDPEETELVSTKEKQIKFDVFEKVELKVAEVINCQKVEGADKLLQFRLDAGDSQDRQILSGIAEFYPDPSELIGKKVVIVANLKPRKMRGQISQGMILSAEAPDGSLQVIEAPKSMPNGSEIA

[15] = target: Methionine--tRNA ligase (Staphylococcus aureus (strain Mu50 / ATCC 700699)) (UniProt P67578); assay: Inhibition of Staphylococcus aureus type 1 MetRS expressed in Escherichia coli BL21(DE3) cells at 50 uM measured after 2.5 hrs by pre-transfer editing assay
[16] = target: Methionine--tRNA ligase (Staphylococcus aureus (strain Mu50 / ATCC 700699)) (UniProt P67578); assay: Binding affinity to Staphylococcus aureus MetRS expressed in Escherichia coli BL21(DE3) cells assessed as change in melting temperature at 100 uM incubated for 10 mins followed by heat treatment by SYPRO orange dye based TSA (reference value: 53.7 degreeC)
[17] = target: T1, Methionine--tRNA ligase (Enterococcus faecalis); assay: Binding affinity to Enterococcus faecalis type 1 MetRS expressed in Escherichia coli BL21(DE3) cells assessed as change in entropy in presence of 1 mM ATP by ITC analysis
[18] = target: T1, Methionine--tRNA ligase (Enterococcus faecalis); assay: Binding affinity to Enterococcus faecalis type 1 MetRS expressed in Escherichia coli BL21(DE3) cells assessed as change in Gibbs free energy in presence of 1 mM ATP by ITC analysis
[19] = target: T1, Methionine--tRNA ligase (Enterococcus faecalis); assay: Binding affinity to Enterococcus faecalis type 1 MetRS expressed in Escherichia coli BL21(DE3) cells assessed as change in enthalpy by ITC analysis
[20] = target: Methionine--tRNA ligase (Staphylococcus aureus (strain Mu50 / ATCC 700699)) (UniProt P67578); assay: Binding affinity to Staphylococcus aureus MetRS expressed in Escherichia coli BL21(DE3) cells assessed as increase in melting temperature incubated for 10 mins followed by heat treatment in presence of <3 mM AMP by SYPRO orange dye based TSA
[21] = target: Methionine--tRNA ligase (Staphylococcus aureus (strain Mu50 / ATCC 700699)) (UniProt P67578); assay: Binding affinity to Staphylococcus aureus MetRS expressed in Escherichia coli BL21(DE3) cells assessed as change in Gibbs free energy in presence of 500 uM ATP by ITC analysis
[22] = target: Methionine--tRNA ligase (Staphylococcus aureus (strain Mu50 / ATCC 700699)) (UniProt P67578); assay: Binding affinity to Staphylococcus aureus MetRS expressed in Escherichia coli BL21(DE3) cells assessed as increase in melting temperature incubated for 10 mins followed by heat treatment in presence of 0.30 to 10 mM ADP by SYPRO orange dye based TSA
[23] = target: Methionine--tRNA ligase (Staphylococcus aureus (strain Mu50 / ATCC 700699)) (UniProt P67578); assay: Binding affinity to Staphylococcus aureus MetRS expressed in Escherichia coli BL21(DE3) cells assessed as change in enthalpy in presence of ATP/L-Met by ITC analysis
[24] = target: T1, Methionine--tRNA ligase (Enterococcus faecalis); assay: Binding affinity to Enterococcus faecalis type 1 MetRS expressed in Escherichia coli BL21(DE3) cells assessed as change in entropy by ITC analysis
[25] = target: Methionine--tRNA ligase (Staphylococcus aureus (strain Mu50 / ATCC 700699)) (UniProt P67578); assay: Binding affinity to Staphylococcus aureus MetRS expressed in Escherichia coli BL21(DE3) cells assessed as change in entropy in presence of 500 uM ATP by ITC analysis
[26] = target: Methionine--tRNA ligase (Staphylococcus aureus (strain Mu50 / ATCC 700699)) (UniProt P67578); assay: Binding affinity to Staphylococcus aureus MetRS expressed in Escherichia coli BL21(DE3) cells assessed as change in entropy in presence of ATP/L-Met by ITC analysis
[27] = target: Methionine--tRNA ligase (Staphylococcus aureus (strain Mu50 / ATCC 700699)) (UniProt P67578); assay: Binding affinity to Staphylococcus aureus MetRS expressed in Escherichia coli BL21(DE3) cells assessed as change in melting temperature at 100 uM incubated for 10 mins followed by heat treatment in presence of 2 mM ATP by SYPRO orange dye based TSA (reference value: 56.4 degreeC)
[28] = target: T1, Methionine--tRNA ligase (Enterococcus faecalis); assay: Binding affinity to Enterococcus faecalis type 1 MetRS expressed in Escherichia coli BL21(DE3) cells assessed as change in Gibbs free energy by ITC analysis
Staphylococcus aureus = assay: Antibacterial activity against Staphylococcus aureus; assay type: functional
[29] = target: Methionine--tRNA ligase (Staphylococcus aureus (strain Mu50 / ATCC 700699)) (UniProt P67578); assay: Binding affinity to Staphylococcus aureus MetRS expressed in Escherichia coli BL21(DE3) cells assessed as increase in melting temperature incubated for 10 mins followed by heat treatment in presence of 0.30 to 10 mM ATP by SYPRO orange dye based TSA
[30] = target: Methionine--tRNA ligase (Staphylococcus aureus (strain Mu50 / ATCC 700699)) (UniProt P67578); assay: Binding affinity to Staphylococcus aureus MetRS expressed in Escherichia coli BL21(DE3) cells assessed as change in Gibbs free energy in presence of ATP/L-Met by ITC analysis
[31] = target: Methionine--tRNA ligase (Staphylococcus aureus (strain Mu50 / ATCC 700699)) (UniProt P67578); assay: Inhibition of Staphylococcus aureus MetRS expressed in Escherichia coli BL21(DE3) cells at 100 uM measured after 2.5 hrs in presence of ATP by pre-transfer editing assay relative to control
[32] = target: Methionine--tRNA ligase (Staphylococcus aureus (strain Mu50 / ATCC 700699)) (UniProt P67578); assay: Binding affinity to Staphylococcus aureus MetRS expressed in Escherichia coli BL21(DE3) cells assessed as change in enthalpy in presence of 500 uM ATP by ITC analysis
[33] = target: T1, Methionine--tRNA ligase (Enterococcus faecalis); assay: Binding affinity to Enterococcus faecalis type 1 MetRS expressed in Escherichia coli BL21(DE3) cells assessed as change in enthalpy in presence of 1 mM ATP by ITC analysis

## N=C(NCCCCNC(=N)NC(=N)Nc1ccc(Cl)cc1)NC(=N)Nc1ccc(Cl)cc1
[1]
  -TdeltaS: 7.28 kcal/mol
[2]
  deltaG: -8 kcal/mol
[3]
  -TdeltaS: 11.3 kcal/mol
[4]
  -TdeltaS: 6.23 kcal/mol
[5]
  deltaH: -14.4 kcal/mol
[6]
  deltaG: -7.24 kcal/mol
[7]
  deltaG: -8.61 kcal/mol
[8]
  deltaH: -8.62 kcal/mol
[9]
  ΔTm: 9 °C
[10]
  deltaH: -18 kcal/mol
[11]
  deltaG: -8.7 kcal/mol
[12]
  deltaH: -15.7 kcal/mol
[13]
  -TdeltaS: 1.94 kcal/mol

## N=C(NCCCCCCNC(=N)NC(=N)Nc1ccc(Cl)cc1)NC(=N)Nc1ccc(Cl)cc1 [CHLORHEXIDINE]
[14]
  inhibition: Active
[1]
  -TdeltaS: 10.7 kcal/mol
[2]
  deltaG: -7.52 kcal/mol
[3]
  -TdeltaS: 13.8 kcal/mol
[4]
  -TdeltaS: 2.31 kcal/mol
[15]
  inhibition: Active
[16]
  ΔTm: -3.4 °C
[17]
  -TdeltaS: -1.6 kcal/mol
[18]
  deltaG: -8.91 kcal/mol
[5]
  deltaH: -11 kcal/mol
[19]
  deltaH: -11.3 kcal/mol
[20]
  Activity: inactive
[6]
  deltaG: -6.81 kcal/mol
[21]
  deltaG: -8.5 kcal/mol
[22]
  Activity: Active
[23]
  deltaH: -13.6 kcal/mol
[24]
  -TdeltaS: 4.06 kcal/mol
[7]
  deltaG: -8.07 kcal/mol
[25]
  -TdeltaS: 4.43 kcal/mol
[8]
  deltaH: -5.95 kcal/mol
[26]
  -TdeltaS: 6.23 kcal/mol
[9]
  ΔTm: 7 °C
[10]
  deltaH: -20 kcal/mol
[11]
  deltaG: -8.66 kcal/mol
[27]
  ΔTm: 7 °C
[28]
  deltaG: -7.23 kcal/mol
Staphylococcus aureus
  MIC: 0.25 µg/mL (≈ 0.495 µM)
[12]
  deltaH: -18.8 kcal/mol
[29]
  Activity: Active
[13]
  -TdeltaS: 0.027 kcal/mol
[30]
  deltaG: -7.34 kcal/mol
[31]
  inhibition: 78.3%
[32]
  deltaH: -12.5 kcal/mol
[33]
  deltaH: -7.31 kcal/mol
